Measurements taken from patent publication US6329155A, “Methods of identifying agents which regulate release of amyloid precursor protein” (Massachusetts Institute of Technology, priority 1994, dated 2001).
Ends that are not written are not given here.

What was measured:
[1] = test system: mAChR-transfected 293 cell lines; assay: APP processing in mAChR-transfected 293 cell lines, subtype not stated (Western blot); type: cell-based, human
[2] = test system: serotonin receptor subtype 5HT2; assay: APP derivative release by 3T3 fibroblasts transfected with serotonin receptor subtype 5HT2; type: cell-based; settings: 3T3 fibroblasts transfected with 5HT2; serum-deprived 24 hours
human m4 mAChR = assay: APP release by human 293 cells transfected with m4 mAChR; type: cell-based; settings: carbachol
human m2 mAChR = assay: APP release by human 293 cells transfected with m2 mAChR; type: cell-based; settings: carbachol
wild-type 293 cells = assay: APP release by wild-type (nontransfected) human 293 cells; type: cell-based; settings: wild-type cell lines; carbachol
[3] = target: T1, PC-12 bradykinin receptors (Rattus norvegicus, UniProt P25023); assay: Secretion of soluble APP (APPs) by PC-12 cells via bradykinin receptors; type: cell-based
T1 construct: functional APPs secretion
T1 sequence (P25023 1-396): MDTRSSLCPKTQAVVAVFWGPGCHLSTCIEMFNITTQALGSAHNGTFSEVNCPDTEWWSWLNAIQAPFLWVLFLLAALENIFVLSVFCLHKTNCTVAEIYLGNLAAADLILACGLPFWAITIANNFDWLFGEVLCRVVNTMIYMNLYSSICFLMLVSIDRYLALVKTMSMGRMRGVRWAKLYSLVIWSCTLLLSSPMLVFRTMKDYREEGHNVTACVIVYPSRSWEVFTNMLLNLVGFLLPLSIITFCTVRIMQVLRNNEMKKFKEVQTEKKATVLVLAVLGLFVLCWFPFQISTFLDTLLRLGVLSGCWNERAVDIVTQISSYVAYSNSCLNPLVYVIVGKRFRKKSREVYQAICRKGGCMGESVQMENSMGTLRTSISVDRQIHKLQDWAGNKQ
Procedure: PC-12 cell lines were obtained from American Type Culture Collection (CRL 1721) and grown in Dulbecco's modified Eagle's medium supplemented with 10% horse serum and 2.5% fetal bovine serum at 37° C. under a 5% carbon dioxide atmosphere. Cells were plated on collagen-coated culture dishes. For differentiation into the neuronal phenotype, 50 ng/ml nerve growth factor was added 24 hours after plating and differentiation was verified after three days by neurite outgrowth. Experiments were conducted with subconfluent monolayers approximately five days after plating.
Media were removed from culture dishes; cells were washed twice with serum-free N2 medium and experiments were done at 37° C. on a hot plate in serum-free N2 medium. Media were removed after incubation periods, desalted on sephadex G-25 columns with water as eluent, lyophilized and resuspended in 100 μl sample butter, and boiled for five minutes. Experiments were carried out in triplicate culture dishes and were repeated three to six times.
Cells were treated with 10 μM bradykinin or with vehicle (control) and secretion of APP was assessed over time, using Western blot and densitometry. […] Membranes were blocked, and probed with monoclonal antibody 22C11. Membranes were washed, and incubated with anti-mouse IgG conjugated to horseradish peroxidase. Bands were visualized with enhanced chemiluminescence using pre-flashed (linear) x-ray films. For densitometric analysis, bands were scanned with a Pharmacia LKB UltroScan XL laser densitometer set at 40 μm vertical interval size and […] horizontal slit width. Data were normalized to vehicle-treated controls which were always run within the same blots.

human m3 mAChR = target: T2, human m3 mAChR (Homo sapiens, UniProt P20309); type: cell-based
T2 construct: expressed in transfected cells; m3 200,000 receptors per cell

human m1 mAChR = target: T3, human m1 mAChR (Homo sapiens, UniProt P11229)
T3 sequence (P11229 1-460): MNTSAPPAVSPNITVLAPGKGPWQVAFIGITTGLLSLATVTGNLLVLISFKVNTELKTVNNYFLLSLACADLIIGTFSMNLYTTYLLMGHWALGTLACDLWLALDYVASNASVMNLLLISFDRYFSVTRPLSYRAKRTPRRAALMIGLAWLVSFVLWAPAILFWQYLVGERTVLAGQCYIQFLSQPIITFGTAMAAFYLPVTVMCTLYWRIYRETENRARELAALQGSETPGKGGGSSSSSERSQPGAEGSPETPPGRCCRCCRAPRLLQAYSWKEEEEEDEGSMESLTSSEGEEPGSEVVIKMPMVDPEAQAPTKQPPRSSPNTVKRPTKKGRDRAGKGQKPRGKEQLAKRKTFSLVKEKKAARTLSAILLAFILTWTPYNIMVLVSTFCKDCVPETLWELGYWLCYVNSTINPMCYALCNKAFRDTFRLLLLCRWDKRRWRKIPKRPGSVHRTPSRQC

[4] = stimulation with carbachol, Western blot

T2 sequence (P20309 whole entry): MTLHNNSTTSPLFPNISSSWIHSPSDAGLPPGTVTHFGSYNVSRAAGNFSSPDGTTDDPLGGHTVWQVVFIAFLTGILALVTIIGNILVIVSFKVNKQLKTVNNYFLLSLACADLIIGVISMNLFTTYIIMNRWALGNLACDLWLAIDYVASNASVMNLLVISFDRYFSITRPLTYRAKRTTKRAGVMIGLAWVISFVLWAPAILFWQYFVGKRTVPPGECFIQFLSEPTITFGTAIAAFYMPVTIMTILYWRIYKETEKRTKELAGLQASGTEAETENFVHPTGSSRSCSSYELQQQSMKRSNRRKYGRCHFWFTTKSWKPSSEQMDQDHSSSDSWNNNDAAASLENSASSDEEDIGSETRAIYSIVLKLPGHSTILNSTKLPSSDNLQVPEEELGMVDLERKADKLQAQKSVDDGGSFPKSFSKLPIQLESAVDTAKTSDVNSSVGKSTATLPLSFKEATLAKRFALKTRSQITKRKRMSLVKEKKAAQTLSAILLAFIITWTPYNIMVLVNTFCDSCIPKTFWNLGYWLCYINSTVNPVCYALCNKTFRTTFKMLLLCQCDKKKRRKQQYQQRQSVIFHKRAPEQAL

CNc1ccc2oc(C[C@H]3O[C@@]4(CC[C@H]3C)O[C@H]([C@H](C)C(=O)c3ccc[nH]3)[C@H](C)C[C@H]4C)nc2c1C(=O)O [A23187]
stimulation of basal APP release by calcium ionophore alone ([1]; 10 μm ionophore, cell line not stated in text (FIG. 1B)): failure

NCCc1c[nH]c2ccc(O)cc12 [Serotonin]
release of N-terminal non-amyloidogenic APP derivatives [2]: increases release

C[N+](C)(C)CCOC(N)=O [carbachol]
basal release of APP fragments, effect of agonist (human m4 mAChR): not stimulated
128 kD APP derivative secreted into the culture medium [1, 4]: increase
abundance of cell-associated 115 kD APP [1, 4]: remained unaffected
abundance of cell-associated 141 kD APP [1, 4]: decreased
basal release of APP fragments, effect of agonist (human m2 mAChR): not stimulated
basal release of APP fragments, effect of agonist (wild-type 293 cells): not stimulated

CN[C@@H]1C[C@H]2O[C@@](C)([C@@H]1OC)n1c3ccccc3c3c4c(c5c6ccccc6n2c5c31)C(=O)NC4 [staurosporine]
effect on bradykinin-induced APPS secretion ([3]; PC-12 cells, added with bradykinin): inhibited
effect on receptor-activated (carbachol-induced) APP release (human m3 mAChR): inhibited
effect on receptor-activated (carbachol-induced) APP release (human m1 mAChR): inhibited

RPPGFSPFR [bradykinin]
secretion of soluble N-terminal APP derivatives (APPS) into the medium ([3]; NGF-differentiated PC-12 cells, 10 μM bradykinin vs vehicle): increases
APPs secretion in undifferentiated PC-12 cells ([3]; PC-12 cells without nerve growth factor): stimulates
